Results from ChEMBL document CHEMBL6083262, “Stereorandomized Oncocins with Preserved Ribosome Binding and Antibacterial Activity” (J Med Chem, 2024).
Activity calls are given as the source filed them. No cut-off for these calls is given here. Non-standard residues stand in square brackets, D forms with d. Residues, ends and D or L forms follow the SMILES beside them.

Legend:
Klebsiella pneumoniae [1] = assay: Antimicrobial activity against Klebsiella pneumoniae NCTC 418 incubated for 16 to 20 hrs in 12.5 % muller hinton medium by broth microdilution method; assay type: functional; conditions: time 16-20 hrs
Pseudomonas aeruginosa [2] = assay: Antimicrobial activity against Pseudomonas aeruginosa PAO1 incubated for 16 to 20 hrs in full muller hinton medium by broth microdilution method; assay type: functional; conditions: time 16-20 hrs
Pseudomonas aeruginosa [3] = assay: Antibacterial activity against multidrug-resistant Pseudomonas aeruginosa PA14 incubated for 16 to 20 hrs in full muller hinton medium by broth microdilution method; assay type: functional; conditions: time 16-20 hrs
Pseudomonas aeruginosa [4] = assay: Antibacterial activity against multidrug-resistant Pseudomonas aeruginosa PA14 4.13 harboring phoQ mutant incubated for 16 to 20 hrs in full muller hinton medium by broth microdilution method; assay type: functional; conditions: time 16-20 hrs
Pseudomonas aeruginosa [5] = assay: Antibacterial activity against multidrug-resistant Pseudomonas aeruginosa PA14 4.18 harboring pmrB mutant incubated for 16 to 20 hrs in full muller hinton medium by broth microdilution method; assay type: functional; conditions: time 16-20 hrs
Pseudomonas aeruginosa [6] = assay: Antibacterial activity against multidrug-resistant Pseudomonas aeruginosa clinical isolate ZEM-1A incubated for 16 to 20 hrs in 12.5 % muller hinton medium by broth microdilution method; assay type: functional; conditions: time 16-20 hrs
rRNA = assay: Binding affinity to [gamma32 P-ATP] labeled Escherichia coli MG1655 23S ribosomal RNA (5-CCCTTGGGACCTACTTC-3') at U2506 position assessed as increase in band intensity at 1 uM incubated for 2.5 hrs in full muller hinton medium by CMCT based gel electrophoresis; assay type: nucleic-acid assay
Klebsiella pneumoniae [7] = assay: Antimicrobial activity against Klebsiella pneumoniae NCTC 418 incubated for 16 to 20 hrs in full muller hinton medium by broth microdilution method; assay type: functional; conditions: time 16-20 hrs
Bacteria = assay: Binding affinity to his-tagged DnaK (unknown origin) expressed in Escherichia coli BL21 (DE3) in dilute muller hinton medium by microscale thermophoresis analysis
Staphylococcus aureus [8] = assay: Antimicrobial activity against methicillin-resistant Staphylococcus aureus COL incubated for 16 to 20 hrs in full muller hinton medium by broth microdilution method; assay type: functional; conditions: time 16-20 hrs
Pseudomonas aeruginosa [9] = assay: Antibacterial activity against multidrug-resistant Pseudomonas aeruginosa clinical isolate ZEM9A incubated for 16 to 20 hrs in full muller hinton medium by broth microdilution method; assay type: functional; conditions: time 16-20 hrs
Klebsiella pneumoniae [10] = assay: Antibacterial activity against multidrug-resistant Klebsiella pneumoniae clinical isolate OXA-48 incubated for 16 to 20 hrs in full muller hinton medium by broth microdilution method; assay type: functional; conditions: time 16-20 hrs
Pseudomonas aeruginosa [11] = assay: Antibacterial activity against multidrug-resistant Pseudomonas aeruginosa PA14 2P4 harboring pmrB mutant incubated for 16 to 20 hrs in full muller hinton medium by broth microdilution method; assay type: functional; conditions: time 16-20 hrs
Enterobacter cloacae = assay: Antibacterial activity against multidrug-resistant Enterobacter cloacae incubated for 16 to 20 hrs in full muller hinton medium by broth microdilution method; assay type: functional; conditions: time 16-20 hrs
Pseudomonas aeruginosa [12] = assay: Antibacterial activity against multidrug-resistant Pseudomonas aeruginosa clinical isolate ZEM-1A incubated for 16 to 20 hrs in full muller hinton medium by broth microdilution method; assay type: functional; conditions: time 16-20 hrs
Acinetobacter baumannii [13] = assay: Antimicrobial activity against Acinetobacter baumannii ATCC 19606 incubated for 16 to 20 hrs in full muller hinton medium by broth microdilution method; assay type: functional; conditions: time 16-20 hrs
[14] = Hemolytic activity in human RBC incubated for 4 hrs; assay type: toxicity, cell-based; conditions: erythrocyte
Pseudomonas aeruginosa [15] = assay: Antimicrobial activity against Pseudomonas aeruginosa PAO1 incubated for 16 to 20 hrs in 12.5 % muller hinton medium by broth microdilution method; assay type: functional; conditions: time 16-20 hrs
Acinetobacter baumannii [16] = assay: Antimicrobial activity against Acinetobacter baumannii ATCC 19606 incubated for 16 to 20 hrs in 12.5 % muller hinton medium by broth microdilution method; assay type: functional; conditions: time 16-20 hrs
Pseudomonas aeruginosa [17] = assay: Antibacterial activity against multidrug-resistant Pseudomonas aeruginosa PA14 incubated for 16 to 20 hrs in 12.5 % muller hinton medium by broth microdilution method; assay type: functional; conditions: time 16-20 hrs
Pseudomonas aeruginosa [18] = assay: Antibacterial activity against multidrug-resistant Pseudomonas aeruginosa PA14 4.13 harboring phoQ mutant incubated for 16 to 20 hrs in 12.5 % muller hinton medium by broth microdilution method; assay type: functional; conditions: time 16-20 hrs
Pseudomonas aeruginosa [19] = assay: Antibacterial activity against multidrug-resistant Pseudomonas aeruginosa clinical isolate ZEM9A incubated for 16 to 20 hrs in 12.5 % muller hinton medium by broth microdilution method; assay type: functional; conditions: time 16-20 hrs
Klebsiella pneumoniae [20] = assay: Antibacterial activity against multidrug-resistant Klebsiella pneumoniae clinical isolate OXA-48 incubated for 16 to 20 hrs in 12.5 % muller hinton medium by broth microdilution method; assay type: functional; conditions: time 16-20 hrs
Escherichia coli = assay: Antimicrobial activity against Escherichia coli W3110 incubated for 16 to 20 hrs in full muller hinton medium by broth microdilution method; assay type: functional; conditions: time 16-20 hrs
Staphylococcus aureus [21] = assay: Antimicrobial activity against methicillin-resistant Staphylococcus aureus COL incubated for 16 to 20 hrs in 12.5 % muller hinton medium by broth microdilution method; assay type: functional; conditions: time 16-20 hrs
Pseudomonas aeruginosa [22] = assay: Antibacterial activity against multidrug-resistant Pseudomonas aeruginosa PA14 4.18 harboring pmrB mutant incubated for 16 to 20 hrs in 12.5 % muller hinton medium by broth microdilution method; assay type: functional; conditions: time 16-20 hrs

Row | Compound | MIC (Klebsiella pneumoniae [1]) [µg/mL] | MIC (Pseudomonas aeruginosa [2]) [µg/mL] | MIC (Pseudomonas aeruginosa [3]) [µg/mL] | MIC (Pseudomonas aeruginosa [4]) [µg/mL] | MIC (Pseudomonas aeruginosa [5]) [µg/mL] | MIC (Pseudomonas aeruginosa [6]) [µg/mL] | Activity (rRNA) | MIC (Klebsiella pneumoniae [7]) [µg/mL] | MIC (Staphylococcus aureus [8]) [µg/mL] | MIC (Pseudomonas aeruginosa [9]) [µg/mL] | MIC (Klebsiella pneumoniae [10]) [µg/mL] | MIC (Pseudomonas aeruginosa [11]) [µg/mL] | MIC (Enterobacter cloacae) [µg/mL] | MIC (Pseudomonas aeruginosa [12]) [µg/mL] | MIC (Acinetobacter baumannii [13]) [µg/mL] | MHC [14] [µg/mL] | further results
1 | CC[C@@H](C)[C@@H](NC(=O)[C@@H](CCCNC(=N)N)NC(=O)[C@@H](CCCNC(=N)N)NC(=O)[C@H]1CCCN1C(=O)[C@H]1CCCN1C(=O)[C@@H](CCCNC(=N)N)NC(=O)[C@H]1CCCN1C(=O)[C@@H](CCCNC(=N)N)NC(=O)[C@H]1CCCN1C(=O)[C@@H](CC(C)C)NC(=O)[C@@H](Cc1ccc(O)cc1)NC(=O)[C@H]1CCCN1C(=O)[C@H]1CCCN1C(=O)[C@@H](CCCCN)NC(=O)[C@@H](CC(=O)O)NC(=O)[C@H](N)C(C)C)C(=O)N[C@H](Cc1ccc(O)cc1)C(=O)N[C@H](CC(N)=O)C(=O)N[C@H](CCCNC(=N)N)C(N)=O (H-[dV][dD][dK][dP][dP][dY][dL][dP][dR][dP][dR][dP][dP][dR][dR][dI][dY][dN][dR]-NH2) | > 16 | > 64 | > 64 | > 64 | > 64 | > 64 | inactive | > 64 | > 64 | > 64 | > 64 | > 64 | > 64 | > 64 | > 64 | > 1000 | Activity (Bacteria): inactive
2 | CC[C@H](C)[C@H](NC(=O)[C@H](CCCNC(=N)N)NC(=O)[C@H](CCCNC(=N)N)NC(=O)[C@@H]1CCCN1C(=O)[C@@H]1CCCN1C(=O)[C@H](CCCNC(=N)N)NC(=O)[C@@H]1CCCN1C(=O)[C@H](CCCNC(=N)N)NC(=O)[C@@H]1CCCN1C(=O)[C@@H](CC(C)C)NC(=O)[C@H](Cc1ccc(O)cc1)NC(=O)[C@@H]1CCCN1C(=O)[C@@H]1CCCN1C(=O)[C@H](CCCCN)NC(=O)[C@H](CC(=O)O)NC(=O)[C@@H](N)C(C)C)C(=O)N[C@@H](Cc1ccc(O)cc1)C(=O)N[C@@H](CC(N)=O)C(=O)N[C@@H](CCCNC(=N)N)C(N)=O (H-VDKPPY[dL]PRPRPPRRIYNR-NH2) | > 16 | > 64 | > 32 | > 32 | > 32 | > 64 | inactive | > 64 | > 64 | > 64 | > 64 | > 64 | > 64 | > 64 | > 64 | > 1000 | MIC (Pseudomonas aeruginosa [15]): > 16 µg/mL; MIC (Acinetobacter baumannii [16]): > 16 µg/mL; MIC (Pseudomonas aeruginosa [17]): > 32 µg/mL; MIC (Pseudomonas aeruginosa [18]): > 32 µg/mL; MIC (Pseudomonas aeruginosa [19]): > 64 µg/mL; MIC (Klebsiella pneumoniae [20]): > 64 µg/mL; MIC (Escherichia coli): > 64 µg/mL; MIC (Staphylococcus aureus [21]): > 64 µg/mL; MIC (Pseudomonas aeruginosa [22]): > 32 µg/mL
